Measured values reported in PMC4791960 (European journal of medicinal chemistry, 2011).

Tests used:
α7 nAChR = α7 nAChR (Rattus norvegicus, UniProt Q05941); assay: [3H]-methyllycaconitine competition binding on rat hippocampal membranes; settings: for interaction with α7 nAChR: in words; for Ki: read-out: α7 Ki, [3H]-methyllycaconitine, rat hippocampal membranes
α4β2 nAChR = α4β2 nAChR (Rattus norvegicus, UniProt P09483+P12390); assay: [3H]-epibatidine competition binding on rat cortical membranes; settings: tested at 5 μM, ± standard error
AChBP from Bt = assay: Dissociation constants with AChBP from Bulinus truncatus; format: binding; settings: compound 2 vs compound 3 (OH to OCH3)
AChBP from Ac = assay: Dissociation constants with AChBP from Aplysia californica; format: binding; settings: compound 2 vs compound 3 (OH to OCH3)
[1] = target: α3β4 ganglion-type nicotinic receptors (Homo sapiens, UniProt P30926+P32297); assay: [3H]-epibatidine competition binding on SH-SY5Y cellular membranes
[2] = target: α1βγδ muscle-type nicotinic receptors (Homo sapiens, UniProt P02708+P07510+Q07001); assay: [3H]-epibatidine competition binding on TE-671 cellular membranes; settings: tested at 5 μM, ± standard error
rat α7 nAChR = rat α7 nAChR (Rattus norvegicus, UniProt Q05941); assay: Patch-clamp electrophysiology in rat α7 nAChR; format: cell-based

Molecule	interaction with α7 nAChR (α7 nAChR)	Ki (α7 nAChR) [nM]	α4β2 percent inhibition of control radioligand binding (α4β2 nAChR) [%]	also measured
c1ccc2oc(C3=NC4(CN3)CN3CCC4CC3)cc2c1 (stereo not shown) [Compound 3e, 2-Spiro[1,5-dihydroimidazole-4,3′-quinuclidine]-2-ylbenzo [b]furan]	do not demonstrate any interaction	–	–	–
C1=NCC2(CN3CCC2CC3)NC=C1c1ccccc1 (stereo not shown) [Compound 2h, 6-phenylspiro[1,3-dihydro-1,4-diazepine-2,3′-quinuclidine]]	do not demonstrate any interaction	–	–	–
5-Phenylspiro[1,3-dihydro-1,4-diazepine-2,3′-quinuclidine]-7-ol [Compound 2a]	–	140	15 ± 1	–
COc1ccc(/C=C2\CCCN=C2c2cccnc2)c(OC)c1 [Compound 2, 3-(2,4-dimethoxybenzilidene)-anabaseine]	–	–	–	decrease in Kd value (affinity) vs compound 3, Bt (AChBP from Bt): 2.5 fold; loss in affinity vs compound 3, Ac (AChBP from Ac): 110 fold
O=C1NCC2(CN3CCC2CC3)NC(=O)C1c1ccccc1 (stereo not shown) [Compound 2i, 6-Phenylspiro[1,4-diazepane-2,3′-quinuclidine]-5,7-dione]	do not demonstrate any interaction	–	–	–
5-(2-Methoxyphenyl)spiro[1,3-dihydro-1,4-diazepine-2,3′-quinuclidine]-7-ol [Compound 2b]	–	110	7 ± 1	–
COc1cc(O)ccc1/C=C1\CCCN=C1c1cccnc1 [Compound 3, 2-Methoxy-4-OH benzylidene anabaseine, reference compound]	–	–	–	inhibition at 5 µM ([1]; read-out: α3β4 percent inhibition of control radioligand binding): 75 ± 1%
5-(4-Methoxyphenyl)spiro[1,3-dihydro-1,4-diazepine-2,3′-quinuclidine]-7-ol [Compound 2d]	–	42	42 ± 14	α3β4 percent inhibition of control radioligand binding ([1]; tested at 5 μM, [3H]-epibatidine, SH-SY5Y cellular membranes, ± standard error): 63 ± 0.4%; α1βγδ percent inhibition of control radioligand binding [2]: 38 ± 5%
5-(2-Furyl)spiro[1,3-dihydro-1,4-diazepine-2,3′-quinuclidine]-7-ol [Compound 2g]	–	150	14 ± 3	–
c1ccc(C2=NC3(CN2)CN2CCC3CC2)cc1 (stereo not shown) [Compound 3c]	do not demonstrate any interaction	–	–	–
Oc1c(C2=NC3(CN2)CN2CCC3CC2)oc2ccccc12 (stereo not shown) [Compound 3a, 2-(3-Hydroxybenzofuran-2-yl)spiro[1,5-dihydroimidazole-4,3′-quinuclidine]]	–	–	–	EC50 (rat α7 nAChR): 600 ± 500 nM; Emax (rat α7 nAChR): 53 ± 4.4%
